{"source": "patent US20110263574A1", "about": "“PIRENZEPINE AS OTOPROTECTIVE AGENT” (PROTEOSYS AG, priority 2009, published 2011)", "key": {"PARP-1": {"tested_on": "PARP-1", "conditions": "induced by transient ischemia or acoustic trauma; Tabuchi et al.; cited from earlier work"}, "[1]": {"tested_on": "germ cell tumor cell line NT2", "test": "Survival rate of cis-platin treated cancer cell line NT2 with simultaneous test compound", "format": "cell-based", "conditions": "cis-platin 1.4 μM, 10 μM test compound simultaneously, control DMSO 0.1%"}, "Inner hair cells (IHC)": {"tested_on": "Inner hair cells (IHC)", "test": "Otoprotection in cultivated cochlea, cis-platin induced loss of inner hair cells", "format": "cell-based", "conditions": "cultivated cochlea of post-natal mice; cis-platin 5 μM; test compound 0.1 to 100 μM; compared to controls", "description": "(§1) In cultivated cochlea, a loss of sensory or hair cells was induced by administering cis-platin (5 μM).\n(§2) Intact cochlea of post-natal mice were cultivated up to 7 days (Unsworth and Lelkes, Nat. Med. 4 (1998), 901-907) in simulated microgravity.\n(§3) The otic protectivity of the test compounds PSY 310 and PSY 3101 in the presence of ototoxic agents was tested. Neomycin (an aminoglycoside antibiotic) and cis-platinum (a chemotherapeutic agent) were added in three different concentrations to the cultivate organ over a time period of 48 hours.\n(§4) The test compounds were added in six different amounts of 0.1 to 100 μM respectively."}, "Outer hair cells (OHC)": {"tested_on": "Outer hair cells (OHC)", "test": "Otoprotection in cultivated cochlea, cis-platin induced loss of outer hair cells", "format": "cell-based", "conditions": "cultivated cochlea of post-natal mice; cis-platin 5 μM; test compound 0.1 to 100 μM; compared to controls", "description": "as §1, §2, §3, §4"}, "[2]": {"tested_on": "germ cell tumor cell line 2101 Ep", "test": "Survival rate of cis-platin treated cancer cell line 2101 Ep with simultaneous test compound", "format": "cell-based", "conditions": "2101 Ep cells; cis-platin 1.4 μM; 10 μM test compound simultaneously; control DMSO 0.1%"}}, "note": "“Also recorded” adds a separate entry of the source."}
{"smiles": "NC(=O)c1cccc(N)c1", "note": "[3-aminobenzamide]", "values": [{"measurement": "effect on cochleal dysfunctions", "setting": "PARP-1", "value": "alleviates"}]}
{"smiles": "CN1CCN(CC(=O)N2c3ccccc3C(=O)Nc3cccnc32)CC1", "note": "[pirenzepine]", "values": [{"measurement": "effect on cytotoxic effect of cis-platinum (survival rate of cancer cells)", "setting": "[1]", "value": "does not reduce"}, {"measurement": "preserved fraction of inner hair cells (hair cell protection)", "setting": "Inner hair cells (IHC)", "value": "dosis dependent protection; also recorded: dose-dependent increase"}, {"measurement": "preserved fraction of outer hair cells (hair cell protection)", "setting": "Outer hair cells (OHC)", "value": "dosis dependent protection; also recorded: dose-dependent increase"}, {"measurement": "effect on cytotoxic effect of cis-platinum (survival rate of cancer cells)", "setting": "[2]", "value": "does not reduce"}]}
